Results reported in PMC11740726 (PNAS Nexus, 2025).
Values joined by “and” are separate entries in the source; they are usually repeats but may differ in a detail not shown here. Equal values may be shown once. Read-outs that look alike come from different tables or passages of the source.

Tests used:
[1] = test system: SARS-CoV-2 Omicron EG.5.1; assay: microbe, parasite or virus in culture; type: cell-based; details: Severe acute respiratory syndrome coronavirus 2, read-out: Against SARS-CoV-2 variants EC50, Omicron EG.5.1
[2] = test system: SARS-CoV-2 Omicron BA.2.75; assay: microbe, parasite or virus in culture; type: cell-based; details: Severe acute respiratory syndrome coronavirus 2, read-out: Against SARS-CoV-2 variants EC50, Omicron BA.2.75
[3] = test system: six various Omicron variants (BA.5, BA.2.75, BQ.1.1, XBB, XBB.1.5, and EG.5.1); assay: microbe, parasite or virus in culture; type: cell-based, SARS-CoV-2; details: Severe acute respiratory syndrome coronavirus 2, read-out: EC50 values ranging over all six Omicron variants
[4] = test system: SARS-CoV-2 Omicron XBB.1.5; assay: microbe, parasite or virus in culture; type: cell-based; details: Severe acute respiratory syndrome coronavirus 2, read-out: Against SARS-CoV-2 variants EC50, Omicron XBB.1.5
SARS-CoV-2 Omicron XBB = assay: microbe, parasite or virus in culture; type: cell-based; details: Severe acute respiratory syndrome coronavirus 2, read-out: Against SARS-CoV-2 variants EC50, Omicron XBB
SARS-CoV-2 Omicron BA.5 = assay: microbe, parasite or virus in culture; type: cell-based; details: Severe acute respiratory syndrome coronavirus 2, read-out: Against SARS-CoV-2 variants EC50, Omicron BA.5
SARS-CoV-2^E166V-P14 [5] = type: cell-based; details: read-out: EC50, SARS-CoV-2^E166V-P14, VeroE6 +2μM CP-100356
SARS-CoV-2^BQ.1.1 = assay: microbe, parasite or virus in culture; type: cell-based; details: Severe acute respiratory syndrome coronavirus 2, read-out: Against SARS-CoV-2 variants EC50, Omicron BQ.1.1
SARS-CoV-2^E166V-P14 [6] = type: cell-based; details: read-out: EC50, SARS-CoV-2^E166V-P14, HeLa^hACE2-TMPRSS2
rgSARS-CoV-2^WT = assay: microbe, parasite or virus in culture; type: cell-based; details: Severe acute respiratory syndrome coronavirus 2, Vero C1008, read-out: EC50, rgSARS-CoV-2^WT, VeroE6 +2μM CP-100356
rgSARS-CoV-2^E166V = type: cell-based, SARS-CoV-2; details: read-out: EC50, rgSARS-CoV-2^E166V, VeroE6 +2μM CP-100356

Compound	EC50 [1] [µM]	EC50 [2] [µM]	EC50 [3] [µM]	EC50 [4] [µM]	EC50 (SARS-CoV-2 Omicron XBB) [µM]	EC50 (SARS-CoV-2 Omicron BA.5) [µM]	EC50 (SARS-CoV-2^E166V-P14 [5]) [µM]	EC50 (SARS-CoV-2^BQ.1.1) [µM]	EC50 (SARS-CoV-2^E166V-P14 [6])	EC50 (rgSARS-CoV-2^WT) [µM]	EC50 (rgSARS-CoV-2^E166V) [µM]
CC(C)(C)[C@H](NC(=O)C(F)(F)F)C(=O)N1C[C@H]2[C@@H]([C@H]1C(=O)N[C@@H](C[C@@H]1CCNC1=O)C(=O)c1nc3c(F)cccc3s1)C2(C)C [TKB245]	0.009 ± 0.001	0.027 ± 0.003	0.006 to 0.038	0.035 ± 0.018	0.006 ± 0.003	0.023 ± 0.009	–	–	–	–	–
Cn1cnc(Cn2c(=O)[nH]/c(=N\c3cc4cn(C)nc4cc3Cl)n(Cc3cc(F)c(F)cc3F)c2=O)n1 [Ensitrelvir, reference compound]	0.21 ± 0.09	0.14 ± 0.06	0.06 to 0.22	0.22 ± 0.09	0.06 ± 0.02	0.2 ± 0.04	0.54	0.07 ± 0.02	–	–	–
CC(C)(C)[C@H](NC(=O)C(F)(F)F)C(=O)N1C[C@H]2[C@@H]([C@H]1C(=O)N[C@@H](C[C@@H]1CCNC1=O)C(=O)c1nc3cc(F)ccc3s1)C2(C)C [TKB272]	0.007 ± 0.001	0.006 ± 0.003	0.003 to 0.008	0.005 ± 0.002	0.003 ± 0.001	0.008 ± 0.001	–	0.003 ± 0.001	0.0513 µM and 0.051 µM	0.003	0.022
CC(C)C(=O)OC[C@H]1O[C@@H](n2ccc(NO)nc2=O)[C@H](O)[C@@H]1O [molnupiravir, reference compound]	–	–	–	–	–	–	0.75	–	–	–	–
CC(C)(C)[C@H](NC(=O)C(F)(F)F)C(=O)N1C[C@H]2[C@@H]([C@H]1C(=O)N[C@H](C#N)C[C@@H]1CCNC1=O)C2(C)C [Nirmatrelvir, reference compound]	0.13 ± 0.02	0.3 ± 0.22	0.02 to 0.75	0.21 ± 0.28	–	0.75 ± 0.22	–	0.05 ± 0.02	1.42 µM	0.026 ± 0.005	1.3
